Data as given in patent publication US20020082420A1, “Bicyclic heterocycles, pharmaceutical compositions containing them, their use, and processes for preparing them” (priority 2000, published 2002).

Assays:
human EGF-R = target: T1, human EGF-R (Homo sapiens, UniProt P00533); experiment: Inhibition of EGF-dependent proliferation of F/L-HERc cells (Cell Titer 96 assay); type: cell-based; conditions: F/L-HERc cells (murine IL-3-dependent line expressing human EGF-R), stimulated with EGF 20 ng/ml, 48 hours at 37° C.
T1 construct: expressed in transfected cells; host or cells: F/L-HERc cells (murine IL-3-dependent FDC-P1 line transduced with an LXSN retroviral vector carrying human EGF-R cDNA; packaging line GP+E86)
T1 sequence (P00533 25-1210): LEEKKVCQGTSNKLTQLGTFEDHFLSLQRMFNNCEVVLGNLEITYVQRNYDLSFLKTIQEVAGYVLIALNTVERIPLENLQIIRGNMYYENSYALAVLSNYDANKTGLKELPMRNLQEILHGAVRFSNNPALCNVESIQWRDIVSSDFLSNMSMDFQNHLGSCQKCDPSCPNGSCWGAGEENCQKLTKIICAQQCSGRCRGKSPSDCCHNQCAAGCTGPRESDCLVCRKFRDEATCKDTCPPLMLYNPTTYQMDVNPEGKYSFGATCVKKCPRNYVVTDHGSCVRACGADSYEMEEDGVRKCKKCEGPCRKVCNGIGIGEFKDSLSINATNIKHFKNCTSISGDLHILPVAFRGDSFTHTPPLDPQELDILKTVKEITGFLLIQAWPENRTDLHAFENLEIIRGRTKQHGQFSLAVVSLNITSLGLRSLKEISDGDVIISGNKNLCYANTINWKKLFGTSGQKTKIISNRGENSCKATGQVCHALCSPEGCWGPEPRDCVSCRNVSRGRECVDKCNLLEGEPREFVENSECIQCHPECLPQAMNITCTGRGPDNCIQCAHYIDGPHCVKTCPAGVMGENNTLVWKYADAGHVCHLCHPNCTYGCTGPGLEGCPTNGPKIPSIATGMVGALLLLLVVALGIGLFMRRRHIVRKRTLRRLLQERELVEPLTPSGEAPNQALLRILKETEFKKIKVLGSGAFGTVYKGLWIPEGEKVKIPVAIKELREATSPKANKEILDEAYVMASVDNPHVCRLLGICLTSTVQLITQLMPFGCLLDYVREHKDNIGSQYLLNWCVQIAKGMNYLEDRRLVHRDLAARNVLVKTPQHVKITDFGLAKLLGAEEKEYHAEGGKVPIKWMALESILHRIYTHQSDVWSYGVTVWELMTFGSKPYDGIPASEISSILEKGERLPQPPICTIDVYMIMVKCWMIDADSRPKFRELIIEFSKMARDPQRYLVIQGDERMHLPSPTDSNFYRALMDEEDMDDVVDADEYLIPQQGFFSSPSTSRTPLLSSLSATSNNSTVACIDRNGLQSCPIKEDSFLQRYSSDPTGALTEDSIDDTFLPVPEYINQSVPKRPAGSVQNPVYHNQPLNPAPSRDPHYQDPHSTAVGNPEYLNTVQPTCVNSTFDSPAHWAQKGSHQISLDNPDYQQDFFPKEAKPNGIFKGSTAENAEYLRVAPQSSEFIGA
Description: A cell line of murine origin dependent on interleukin-3-(IL-3) which was genetically modified to express functional human EGF-R was used here. The proliferation of these cells known as F/L-HERc can therefore be stimulated either by murine IL-3 or by EGF (cf T. von Ruiden et al., EMBO J. 7, 2749-2756 (1988) and J. H. Pierce et al., Science 239, 628-631 (1988)).
The starting material used for the F/L-HERc cells was the cell line FDC-P1, the production of which has been described by T. M. Dexter et al., J. Exp. Med. 152. 1036-1047 (1980). Alternatively, however, other growth-factor-dependent cells may also be used (cf., e.g., J.H. Pierce et al., Science 239, 628-631 (1988); H. Shibuya et al., Cell 70, 57-67 (1992); and W. S. Alexander et al., EMBO J. 10, 3683-3691 (1991)). For expressing the human EGF-R cDNA (cf A. Ullrich et al., Nature 309, 418-425 (1984)) recombinant retroviruses were used as described by T. von Ruiden et al., EMBO J. 7, 2749-2756 (1988), except that the retroviral vector LXSN (cf A. D. Miller et al., BioTechniques 7, 980-990 (1989)) was used for the expression of the EGF-R cDNA and the line GP+E86 (cf D. Markowitz et al., J. Virol. 62, 1120-1124 (1988)) was used as the packaging cell.
The test was performed as follows:
F/L-HERc cells were cultivated in RPMI/1640 medium (BioWhittaker), supplemented with 10% fetal calf serum (FCS, Boehringer Mannheim), 2 mM glutamine (BioWhittaker), standard antibiotics and 20 ng/ml of human EGF (Promega), at 37° C. and 5% CO2. In order to investigate the inhibitory activity of the compounds according to the invention, 1.5×10^4 cells per well were cultivated in triplicate in 96-well plates in the above medium (200 μl), the cell proliferation being stimulated with either EGF (20 ng/ml) or murine IL-3. The IL-3 used was obtained from culture supernatants of the cell line X63/0 mIL-3 (cf H. Karasuyama et al., Eur. J. Immunol. 18, 97-104 (1988)). The compounds according to the invention were dissolved in 100% dimethylsulfoxide (DMSO) and added to the cultures in various dilutions, the maximum DMSO concentration being 1%. The cultures were incubated for 48 hours at 37° C.
In order to determine the inhibitory activity of the compounds according to the invention the relative cell number was measured in O.D. units using the Cell Titer 96™ Aqueous Non-Radioactive Cell Proliferation Assay (Promega). The relative cell number was calculated as a percentage of the control (F/LHERc cells without inhibitor) and the concentration of active substance which inhibits the proliferation of the cells by 50% (IC50) was derived therefrom.

For O=C(O)CN1CCN(c2ncc3ncnc(Nc4ccc(F)c(Cl)c4)c3n2)CC1 [Example 1(6), 4-[(3-chloro-4-fluorophenyl)amino]-6-[4-(carboxymethyl)piperazin-1-yl]pyrimido[5,4-d]pyrimidine], the IC50 (human EGF-R) was 2300 nM and the melting point was 240 °C (dec.).
An IC50 (human EGF-R) of 30 nM and a melting point of 144 °C were found for COC(=O)CN1CCC(Nc2ncc3ncnc(Nc4cccc(Br)c4)c3n2)CC1 [2(17)] in this work.
With CN(CCC(=O)O)C1CCN(c2ncc3ncnc(Nc4ccc(F)c(Cl)c4)c3n2)CC1 [1(11), 4-[(3-chloro-4-fluorophenyl)amino]-6-[4-[N-(2-carboxyethyl)-N-methylamino]piperidin-1-yl]pyrimido[5,4-d]pyrimidine] the IC50 (human EGF-R) was 2320 nM and the melting point was 139 to 165 °C (dec.).
With O=C(O)CN1CCC(CCNc2ncc3ncnc(Nc4ccc(F)c(Cl)c4)c3n2)CC1 [1(9), 4-[(3-chloro-4-fluorophenyl)amino]-6-{2-[1-(carboxymethyl)piperidin-4-yl]ethylamino}pyrimido[5,4-d]pyrimidine] the IC50 (human EGF-R) was 820 nM and the melting point was 246 to 249 °C (dec.).
An IC50 (human EGF-R) of 21 nM and a melting point of 218 °C were found for COC(=O)CN1CCC(Nc2ncc3ncnc(Nc4cc(Cl)c(N)c(Cl)c4)c3n2)CC1 [2(26), 4-[(4-amino-3,5-dichlorophenyl)amino]-6-({1-[(methoxycarbonyl)methyl]piperidin-4-yl}amino)pyrimido[5,4-d]pyrimidine] in this work.
